Key:
Mandelate racemase = biological target: T1, Mandelate racemase (Pseudomonas putida, UniProt P11444); assay: Inhibition of mandelate racemase in Pseudomonas putida
T1 sequence (P11444 whole entry): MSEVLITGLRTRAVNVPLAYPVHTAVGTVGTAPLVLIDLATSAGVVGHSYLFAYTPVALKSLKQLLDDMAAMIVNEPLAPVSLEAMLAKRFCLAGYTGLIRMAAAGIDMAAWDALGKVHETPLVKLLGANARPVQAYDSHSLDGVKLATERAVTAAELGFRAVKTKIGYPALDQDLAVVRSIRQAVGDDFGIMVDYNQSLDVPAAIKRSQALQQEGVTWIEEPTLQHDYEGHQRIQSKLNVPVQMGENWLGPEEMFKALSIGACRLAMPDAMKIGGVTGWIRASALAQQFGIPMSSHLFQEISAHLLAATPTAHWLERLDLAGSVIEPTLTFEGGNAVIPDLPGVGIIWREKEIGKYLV

[1] = Dissociation constant, pKa of the compound; format: physicochemical

Structure (SMILES): O=C1Cc2ccccc2N1O
- Ki (Mandelate racemase): 510 µM

Structure (SMILES): O=CN(O)c1ccccc1
- Ki (Mandelate racemase): 2.79 µM
- pKa [1]: 7.92

Structure (SMILES): O=C(NO)c1ccccc1 [BENZOHYDROXAMATE]
- Ki (Mandelate racemase): 12 µM

Structure (SMILES): O=NN(O)c1ccccc1 [CUPFERRON]
- Ki (Mandelate racemase): 2.67 µM

Reference: ChEMBL document CHEMBL1146269, “Intermediate analogue inhibitors of mandelate racemase: N-Hydroxyformanilide and cupferron” (Bioorg Med Chem Lett, 2007)
